In brackets after ≈: the same amount, converted by molar mass.
Tests used:
Enterobacter cloacae [1] = assay: Antibacterial activity against Enterobacter cloacae after 24 hrs by microdilution method; format: functional
Enterobacter cloacae [2] = assay: Bactericidal activity against Enterobacter cloacae incubated for 24 hrs followed by serial sub-cultivation and measured after 24 hrs by microdilution method; format: functional
Salmonella typhimurium [3] = assay: Bactericidal activity against Salmonella typhimurium ATCC 13311 incubated for 24 hrs followed by serial sub-cultivation and measured after 24 hrs by microdilution method; format: functional, Salmonella enterica subsp. enterica serovar Typhimurium
Micrococcus flavus [4] = assay: Bactericidal activity against Micrococcus flavus ATCC 10240 incubated for 24 hrs followed by serial sub-cultivation and measured after 24 hrs by microdilution method; format: functional
Staphylococcus aureus [5] = assay: Antibacterial activity against Staphylococcus aureus ATCC 6538 after 24 hrs by microdilution method; format: functional; conditions: ATCC 6538, 24 h
Staphylococcus aureus [6] = assay: Bactericidal activity against Staphylococcus aureus ATCC 6538 incubated for 24 hrs followed by serial sub-cultivation and measured after 24 hrs by microdilution method; format: functional
Bacillus cereus [7] = assay: Bactericidal activity against Bacillus cereus incubated for 24 hrs followed by serial sub-cultivation and measured after 24 hrs by microdilution method; format: functional
Salmonella typhimurium [8] = assay: Antibacterial activity against Salmonella typhimurium ATCC 13311 after 24 hrs by microdilution method; format: functional, Salmonella enterica subsp. enterica serovar Typhimurium; conditions: Salmonella enterica, ATCC 13311, 24 h
Listeria monocytogenes [9] = assay: Bactericidal activity against Listeria monocytogenes NCTC 7973 incubated for 24 hrs followed by serial sub-cultivation and measured after 24 hrs by microdilution method; format: functional
Listeria monocytogenes [10] = assay: Antibacterial activity against Listeria monocytogenes NCTC 7973 after 24 hrs by microdilution method; format: functional; conditions: NCTC 7973, 24 h
Pseudomonas aeruginosa [11] = assay: Bactericidal activity against Pseudomonas aeruginosa ATCC 27853 incubated for 24 hrs followed by serial sub-cultivation and measured after 24 hrs by microdilution method; format: functional
Escherichia coli [12] = assay: Antibacterial activity against Escherichia coli ATCC 35210 after 24 hrs by microdilution method; format: functional; conditions: ATCC 35210, 24 h
Micrococcus flavus [13] = assay: Antibacterial activity against Micrococcus flavus ATCC 10240 after 24 hrs by microdilution method; format: functional; conditions: ATCC 10240, 24 h
Pseudomonas aeruginosa [14] = assay: Antibacterial activity against Pseudomonas aeruginosa ATCC 27853 after 24 hrs by microdilution method; format: functional; conditions: ATCC 27853, 24 h
Escherichia coli [15] = assay: Bactericidal activity against Escherichia coli ATCC 35210 incubated for 24 hrs followed by serial sub-cultivation and measured after 24 hrs by microdilution method; format: functional
Bacillus cereus [16] = assay: Antibacterial activity against Bacillus cereus after 24 hrs by microdilution method; format: functional
Aspergillus fumigatus [17] = assay: Fungicidal activity against Aspergillus fumigatus incubated for 72 hrs followed by serial sub-cultivation for 72 hrs and measured after 72 hrs by serial dilution method; format: functional
Penicillium ochrochloron [18] = assay: Antifungal activity against Penicillium ochrochloron ATCC 9112 after 72 hrs by serial dilution method; format: functional; conditions: ATCC 9112, 72 h
Aspergillus ochraceus [19] = assay: Antifungal activity against Aspergillus ochraceus ATCC 12066 after 72 hrs by serial dilution method; format: functional; conditions: ATCC 12066, 72 h
Penicillium ochrochloron [20] = assay: Fungicidal activity against Penicillium ochrochloron ATCC 9112 incubated for 72 hrs followed by serial sub-cultivation for 72 hrs and measured after 72 hrs by serial dilution method; format: functional
Aspergillus versicolor [21] = assay: Fungicidal activity against Aspergillus versicolor ATCC 11730 incubated for 72 hrs followed by serial sub-cultivation for 72 hrs and measured after 72 hrs by serial dilution method; format: functional
Aspergillus niger [22] = assay: Fungicidal activity against Aspergillus niger ATCC 6275 incubated for 72 hrs followed by serial sub-cultivation for 72 hrs and measured after 72 hrs by serial dilution method; format: functional
Trichoderma viride [23] = assay: Antifungal activity against Trichoderma viride IAM 5061 after 72 hrs by serial dilution method; format: functional; conditions: IAM 5061, 72 h
Aspergillus niger [24] = assay: Antifungal activity against Aspergillus niger ATCC 6275 after 72 hrs by serial dilution method; format: functional; conditions: ATCC 6275, 72 h
Talaromyces funiculosus [25] = assay: Antifungal activity against Penicillium funiculosum ATCC 36839 after 72 hrs by serial dilution method; format: functional; conditions: ATCC 36839, 72 h
Aspergillus ochraceus [26] = assay: Fungicidal activity against Aspergillus ochraceus ATCC 12066 incubated for 72 hrs followed by serial sub-cultivation for 72 hrs and measured after 72 hrs by serial dilution method; format: functional
Aspergillus fumigatus [27] = assay: Antifungal activity against Aspergillus fumigatus after 72 hrs by serial dilution method; format: functional
Trichoderma viride [28] = assay: Fungicidal activity against Trichoderma viride IAM 5061 incubated for 72 hrs followed by serial sub-cultivation for 72 hrs and measured after 72 hrs by serial dilution method; format: functional
Candida albicans [29] = assay: Antifungal activity against Candida albicans after 72 hrs by serial dilution method; format: functional
Aspergillus versicolor [30] = assay: Antifungal activity against Aspergillus versicolor ATCC 11730 after 72 hrs by serial dilution method; format: functional; conditions: ATCC 11730, 72 h
Talaromyces funiculosus [31] = assay: Fungicidal activity against Penicillium funiculosum ATCC 36839 incubated for 72 hrs followed by serial sub-cultivation for 72 hrs and measured after 72 hrs by serial dilution method; format: functional
Candida albicans [32] = assay: Fungicidal activity against Candida albicans incubated for 72 hrs followed by serial sub-cultivation for 72 hrs and measured after 72 hrs by serial dilution method; format: functional

CC1(C)S[C@@H]2[C@H](NC(=O)[C@H](N)c3ccccc3)C(=O)N2[C@H]1C(=O)O [AMPICILLIN]
MIC (Enterobacter cloacae [1]): 248 µM (≈ 86.7 µg/mL) | MBC99.5 (Enterobacter cloacae [2]): 37.2 ×10⁻² umol/ml | MBC99.5 (Salmonella typhimurium [3]): 49.2 ×10⁻² umol/ml | MBC99.5 (Micrococcus flavus [4]): 37.2 ×10⁻² umol/ml | MIC (Staphylococcus aureus [5]): 248 µM (≈ 86.7 µg/mL) | MBC99.5 (Staphylococcus aureus [6]): 37.2 ×10⁻² umol/ml | MBC99.5 (Bacillus cereus [7]): 37.2 ×10⁻² umol/ml | MIC (Salmonella typhimurium [8]): 248 µM (≈ 86.7 µg/mL) | MBC99.5 (Listeria monocytogenes [9]): 74.4 ×10⁻² umol/ml | MIC (Listeria monocytogenes [10]): 372 µM (≈ 130 µg/mL) | MBC99.5 (Pseudomonas aeruginosa [11]): 124 ×10⁻² umol/ml | MIC (Escherichia coli [12]): 372 µM (≈ 130 µg/mL) | MIC (Micrococcus flavus [13]): 248 µM (≈ 86.7 µg/mL) | MIC (Pseudomonas aeruginosa [14]): 744 µM (≈ 260 µg/mL) | MBC99.5 (Escherichia coli [15]): 49.2 ×10⁻² umol/ml | MIC (Bacillus cereus [16]): 248 µM (≈ 86.7 µg/mL)

c1ccc(-c2ccc(C(c3ccccc3)n3ccnc3)cc2)cc1 (centres undefined) [BIFONAZOLE]
MFC99.5 (Aspergillus fumigatus [17]): 64 ×10⁻² umol/ml | MIC (Penicillium ochrochloron [18]): 640 µM (≈ 199 µg/mL) | MIC (Aspergillus ochraceus [19]): 480 µM (≈ 149 µg/mL) | MFC99.5 (Penicillium ochrochloron [20]): 80.5 ×10⁻² umol/ml | MFC99.5 (Aspergillus versicolor [21]): 64 ×10⁻² umol/ml | MFC99.5 (Aspergillus niger [22]): 64 ×10⁻² umol/ml | MIC (Trichoderma viride [23]): 640 µM (≈ 199 µg/mL) | MIC (Aspergillus niger [24]): 480 µM (≈ 149 µg/mL) | MIC (Talaromyces funiculosus [25]): 640 µM (≈ 199 µg/mL) | MFC99.5 (Aspergillus ochraceus [26]): 80 ×10⁻² umol/ml | MIC (Aspergillus fumigatus [27]): 480 µM (≈ 149 µg/mL) | MFC99.5 (Trichoderma viride [28]): 80 ×10⁻² umol/ml | MIC (Candida albicans [29]): 320 µM (≈ 99.3 µg/mL) | MIC (Aspergillus versicolor [30]): 320 µM (≈ 99.3 µg/mL) | MFC99.5 (Talaromyces funiculosus [31]): 80 ×10⁻² umol/ml | MFC99.5 (Candida albicans [32]): 64 ×10⁻² umol/ml

CC(=O)N1CCN(c2ccc(OCC3COC(Cn4ccnc4)(c4ccc(Cl)cc4Cl)O3)cc2)CC1 (centres undefined) [KETOCONAZOLE]
MFC99.5 (Aspergillus fumigatus [17]): 95 ×10⁻² umol/ml | MIC (Penicillium ochrochloron [18]): 1900 µM (≈ 1010 µg/mL) | MIC (Aspergillus ochraceus [19]): 280 µM (≈ 149 µg/mL) | MFC99.5 (Penicillium ochrochloron [20]): 285 ×10⁻² umol/ml | MFC99.5 (Aspergillus versicolor [21]): 95 ×10⁻² umol/ml | MFC99.5 (Aspergillus niger [22]): 95 ×10⁻² umol/ml | MIC (Trichoderma viride [23]): 1900 µM (≈ 1010 µg/mL) | MIC (Aspergillus niger [24]): 380 µM (≈ 202 µg/mL) | MIC (Talaromyces funiculosus [25]): 380 µM (≈ 202 µg/mL) | MFC99.5 (Aspergillus ochraceus [26]): 38 ×10⁻² umol/ml | MIC (Aspergillus fumigatus [27]): 380 µM (≈ 202 µg/mL) | MFC99.5 (Trichoderma viride [28]): 285 ×10⁻² umol/ml | MIC (Candida albicans [29]): 380 µM (≈ 202 µg/mL) | MIC (Aspergillus versicolor [30]): 380 µM (≈ 202 µg/mL) | MFC99.5 (Talaromyces funiculosus [31]): 95 ×10⁻² umol/ml | MFC99.5 (Candida albicans [32]): 56 ×10⁻² umol/ml

CN[C@@H]1[C@H](O[C@H]2[C@H](O[C@H]3[C@H](O)[C@@H](O)[C@H](N=C(N)N)[C@@H](O)[C@@H]3N=C(N)N)O[C@@H](C)[C@]2(O)C=O)O[C@@H](CO)[C@H](O)[C@H]1O [STREPTOMYCIN]
MIC (Enterobacter cloacae [1]): 43 µM (≈ 25 µg/mL) | MBC99.5 (Enterobacter cloacae [2]): 8.6 ×10⁻² umol/ml | MBC99.5 (Salmonella typhimurium [3]): 34.4 ×10⁻² umol/ml | MBC99.5 (Micrococcus flavus [4]): 17.2 ×10⁻² umol/ml | MIC (Staphylococcus aureus [5]): 172 µM (≈ 100 µg/mL) | MBC99.5 (Staphylococcus aureus [6]): 34.4 ×10⁻² umol/ml | MBC99.5 (Bacillus cereus [7]): 8.6 ×10⁻² umol/ml | MIC (Salmonella typhimurium [8]): 172 µM (≈ 100 µg/mL) | MBC99.5 (Listeria monocytogenes [9]): 51.6 ×10⁻² umol/ml | MIC (Listeria monocytogenes [10]): 258 µM (≈ 150 µg/mL) | MBC99.5 (Pseudomonas aeruginosa [11]): 34.4 ×10⁻² umol/ml | MIC (Escherichia coli [12]): 172 µM (≈ 100 µg/mL) | MIC (Micrococcus flavus [13]): 86 µM (≈ 50 µg/mL) | MIC (Pseudomonas aeruginosa [14]): 172 µM (≈ 100 µg/mL) | MBC99.5 (Escherichia coli [15]): 34.4 ×10⁻² umol/ml | MIC (Bacillus cereus [16]): 43 µM (≈ 25 µg/mL)

— ChEMBL document CHEMBL4257449, “New N-(2-phenyl-4-oxo-1,3-thiazolidin-3-yl)-1,2-benzothiazole-3-carboxamides and acetamides as antimicrobial agents” (2017)
